Reference: PMC11530689, “Anti colorectal cancer activity and in silico studies of novel pyridine nortopsentin analog as cyclin dependent kinase 6 inhibitor” (Scientific Reports, 2024)

Key:
Assay in all cases: NCI 60 cell line screen
[1] = system: HOP-62; format: cell-based; settings: HOP-62, Non-Small Cell Lung Cancer; single concentration 10^−5 M
Protocol: (§1) The cytotoxic activity of nortopsintin analogs (4a-4j) was determined by the national cancer institute (NCI, Bethesda, Maryland, USA) against 60 different cancer cell lines at a single concentration of (10^-5 M). For the determination of IC50 value, we used MTT assay kit (Sigma) according to the manufacturer's protocol. HCT-116 cells were seeded into a 96-well plate at a concentration of 20,000 cells/well. After 24 h, the media was aspirated and replaced with serum-free media containing serial dilutions of the 4i compound. […] The percentage of cytotoxicity was calculated using the following equation: % Cytotoxicity = [1 - ([…])] × 100.

[2] = system: K-562; format: cell-based; settings: K-562, Leukemia; single concentration 10^−5 M
Protocol: as §1

[3] = system: OVCAR-8; format: cell-based; settings: OVCAR-8, Ovarian Cancer; single concentration 10^−5 M
Protocol: as §1

[4] = system: SK-OV-3; format: cell-based; settings: SK-OV-3, Ovarian Cancer; single concentration 10^−5 M
Protocol: as §1

[5] = system: NCI/ADR-RES; format: cell-based; settings: Ovarian Cancer, single concentration 10^−5 M
Protocol: as §1

[6] = system: MCF7; format: cell-based; settings: MCF7, Breast Cancer; single concentration 10^−5 M
Protocol: as §1

[7] = system: HOP-92; format: cell-based; settings: HOP-92, Non-Small Cell Lung Cancer; single concentration 10^−5 M
Protocol: as §1

[8] = system: MDA-MB-231/ATCC; format: cell-based; settings: Breast Cancer, single concentration 10^−5 M
Protocol: as §1

[9] = system: T-47D; format: cell-based; settings: Breast Cancer, single concentration 10^−5 M
Protocol: as §1

[10] = system: SF-539; format: cell-based; settings: SF-539, CNS Cancer; single concentration 10^−5 M
Protocol: as §1

[11] = system: EKVX; format: cell-based; settings: Non-Small Cell Lung Cancer, single concentration 10^−5 M
Protocol: as §1

[12] = system: NCI-H226; format: cell-based; settings: NCI-H226, Non-Small Cell Lung Cancer; single concentration 10^−5 M
Protocol: as §1

[13] = system: NCI-H460; format: cell-based; settings: NCI-H460, Non-Small Cell Lung Cancer; single concentration 10^−5 M
Protocol: as §1

[14] = system: SNB-75; format: cell-based; settings: SNB-75, CNS Cancer; single concentration 10^−5 M
Protocol: as §1

[15] = system: SNB-19; format: cell-based; settings: SNB-19, CNS Cancer; single concentration 10^−5 M
Protocol: as §1

[16] = system: IGROV1; format: cell-based; settings: IGROV1, Ovarian Cancer; single concentration 10^−5 M
Protocol: as §1

[17] = system: NCI-H322M; format: cell-based; settings: Non-Small Cell Lung Cancer, single concentration 10^−5 M
Protocol: as §1

[18] = system: MALME-3M; format: cell-based; settings: Melanoma, single concentration 10^−5 M
Protocol: as §1

[19] = system: M14; format: cell-based; settings: M14, Melanoma; single concentration 10^−5 M
Protocol: as §1

[20] = system: RXF 393; format: cell-based; settings: RXF 393, Renal Cancer; single concentration 10^−5 M
Protocol: as §1

[21] = system: HCC-2998; format: cell-based; settings: HCC-2998, Colon Cancer; single concentration 10^−5 M
Protocol: as §1

[22] = system: CAKI-1; format: cell-based; settings: CAKI-1, Renal Cancer; single concentration 10^−5 M
Protocol: as §1

[23] = system: A549/ATCC; format: cell-based; settings: Non-Small Cell Lung Cancer, single concentration 10^−5 M
Protocol: as §1

[24] = system: ACHN; format: cell-based; settings: Renal Cancer, single concentration 10^−5 M
Protocol: as §1

[25] = system: OVCAR-5; format: cell-based; settings: OVCAR-5, Ovarian Cancer; single concentration 10^−5 M
Protocol: as §1

[26] = system: HL-60 (TB); format: cell-based; settings: Leukemia, single concentration 10^−5 M
Protocol: as §1

[27] = system: 786-0; format: cell-based; settings: 786-0, Renal Cancer; single concentration 10^−5 M
Protocol: as §1

[28] = system: CCRF-CEM; format: cell-based; settings: Leukemia, single concentration 10^−5 M
Protocol: as §1

[29] = system: KM12; format: cell-based; settings: KM12, Colon Cancer; single concentration 10^−5 M
Protocol: as §1

[30] = system: MOLT-4; format: cell-based; settings: MOLT-4, Leukemia; single concentration 10^−5 M
Protocol: as §1

[31] = system: SK-MEL-5; format: cell-based; settings: SK-MEL-5, Melanoma; single concentration 10^−5 M
Protocol: as §1

[32] = system: A498; format: cell-based; settings: A498, Renal Cancer; single concentration 10^−5 M
Protocol: as §1

[33] = system: COLO205; format: cell-based; settings: COLO205, Colon Cancer; single concentration 10^−5 M
Protocol: as §1

[34] = system: SW-620; format: cell-based; settings: SW-620, Colon Cancer; single concentration 10^−5 M
Protocol: as §1

[35] = system: HT29; format: cell-based; settings: HT29, Colon Cancer; single concentration 10^−5 M
Protocol: as §1

[36] = system: SK-MEL-2; format: cell-based; settings: SK-MEL-2, Melanoma; single concentration 10^−5 M
Protocol: as §1

[37] = system: SN12C; format: cell-based; settings: Renal Cancer, single concentration 10^−5 M
Protocol: as §1

[38] = system: HCT-116; format: cell-based, human; settings: HCT-116, Colon Cancer; single concentration 10^−5 M
Protocol: as §1

SMILES: CN(C)c1ccc(-c2cc(-c3c[nH]c4ccccc34)nc(-c3c[nH]c4ccccc34)c2C#N)cc1 [4i]
- Growth % [1]: 82.30%
- Growth % [2]: 39.74%
- Growth % [3]: 96.39%
- Growth % [4]: 94.88%
- Growth % [5]: 90.91%
- Growth % [6]: 49.30%
- Growth % [7]: 104.62%
- Growth % [8]: 99.81%
- Growth % [9]: 95.86%
- Growth % [10]: 75.80%
- Growth % [11]: 93.75%
- Growth % [12]: 79.62%
- Growth % [13]: 60.31%
- Growth % [14]: 86.73%
- Growth % [15]: 79.65%
- Growth % [16]: 74.28%
- Growth % [17]: 92.92%
- Growth % [18]: 97.41%
- Growth % [19]: 97.66%
- Growth % [20]: 106.90%
- Growth % [21]: 88.23%
- Growth % [22]: 68.37%
- Growth % [23]: 89.56%
- Growth % [24]: 98.60%
- Growth % [25]: 102.79%
- Growth % [26]: 85.35%
- Growth % [27]: 99.08%
- Growth % [28]: 78.55%
- Growth % [29]: 58.37%
- Growth % [30]: 98.39%
- Growth % [31]: 96.50%
- Growth % [32]: 98.45%
- Growth % [33]: 91.18%
- Growth % [34]: 46.63%
- Growth % [35]: 63.02%
- Growth % [36]: 102.08%
- Growth % [37]: 92.07%
- Growth % [38]: 57.78%

SMILES: N#Cc1c(-c2ccc([N+](=O)[O-])cc2)cc(-c2c[nH]c3ccccc23)nc1-c1c[nH]c2ccccc12 [4h]
- Growth % [1]: 99.88%
- Growth % [2]: 94.26%
- Growth % [3]: 98.23%
- Growth % [4]: 90.72%
- Growth % [5]: 96.36%
- Growth % [6]: 90.39%
- Growth % [7]: 98.33%
- Growth % [8]: 96.84%
- Growth % [9]: 88.78%
- Growth % [10]: 97.59%
- Growth % [11]: 82.20%
- Growth % [12]: 87.03%
- Growth % [13]: 100.56%
- Growth % [14]: 90.31%
- Growth % [15]: 100.62%
- Growth % [16]: 81.21%
- Growth % [17]: 95.29%
- Growth % [18]: 102.24%
- Growth % [19]: 97.98%
- Growth % [20]: 111.16%
- Growth % [21]: 108.98%
- Growth % [22]: 82.68%
- Growth % [23]: 96.38%
- Growth % [24]: 94.69%
- Growth % [25]: 105.31%
- Growth % [26]: 97.00%
- Growth % [27]: 106.06%
- Growth % [28]: 103.06%
- Growth % [29]: 98.09%
- Growth % [30]: 100.27%
- Growth % [31]: 97.67%
- Growth % [32]: 99.31%
- Growth % [33]: 114.22%
- Growth % [34]: 105.72%
- Growth % [35]: 111.20%
- Growth % [36]: 96.75%
- Growth % [37]: 98.48%
- Growth % [38]: 100.64%
